This is an account of results in US9045531B2, “HLA-binding peptide, precursor thereof, and DNA fragment and recombinant vector coding for said HLA-binding peptide” (NEC CORPORATION, priority 2006, dated 2015).

Test [1] relates to HLA-A24 molecule (product of the HLA-A*2402 gene). Put plainly: Experiment of binding peptide to HLA-A2402 molecule (C1R-A24 cells, flow cytometry). More on the design: species or system human. The following applies: HLA-A24 (HLA-A*2402).
Method: The ability of a peptide to bind to an HLA-A24 molecule, which is a product of the HLA-A*2402 gene, was measured using C1R-A24 cells expressing the HLA-A24 gene (cells produced by Professor Masafumi Takiguchi, Kumamoto University being supplied with permission).
After neutralization, purified β2m was added to C1R-A24 cells, the obtained product was added to serial dilutions of a peptide, and incubated on ice for 4 hours.
Subsequently, the MHC-pep count per C1R-A24 cell (proportional to the strength of fluorescence of the above-mentioned fluorescent antibody) was quantitatively measured using a FACScan fluorescence-activated cell sorter (Becton Dickinson Biosciences). A binding dissociation constant Kd value between the HLA-A24 molecule and the peptide was calculated from the average strength of fluorescence per cell by a published method (Udaka et al., Immunogenetics, 51, 816-828, 2000).
In test [2] the test system is human HLA-A type molecule. Put plainly: Binding experiments, summary statement for HLA-A type molecules. The note with it: summary of the binding experiments.
Method: The ability of a peptide to bind to an HLA-A2 molecule, which is a product of the HLA-A*0201 gene, was measured using strain JY cells (obtained from ATCC (American Type Culture Collection)) expressing the HLA-A*0201.
The ability of a peptide to bind to an HLA-A2 molecule, which is a product of the HLA-A*0206 gene, was measured using RA2.6 cells (cell strain newly prepared in Kochi University) in which cDNA of the HLA-A*0206 gene is expressed in RAMS cells, which are mouse TAP peptide transporter deficient cells.

No end group written: not given here.

Turning to ATNPIVPSF [SEQ ID NO: 6], in test [1], the “Binding Experiment Data (−log Kd value)” value came to 7.564. In addition, the “binding to a human HLA-A type molecule (result in words)” value (“binding to a human HLA-A type molecule” for short) in test [2] is given as “experimentally confirmed to bind”.
For ATNPVVPSF [SEQ ID NO: 7] the same measures were 7.808 and “experimentally confirmed to bind”.
For ATSPIVPSF [SEQ ID NO: 9] the same measures were 7.802 and “experimentally confirmed to bind”.
Regarding DMNNEGSYF [SEQ ID NO: 18], in test [1], the “Binding Experiment Data (−log Kd value)” value turned out to be 5.374. Moreover, the “binding to a human HLA-A type molecule” value in test [2] is given as “experimentally confirmed to bind”.
With DMSNEGSYF [SEQ ID NO: 16], the “binding to a human HLA-A type molecule” value in test [2] is given as “experimentally confirmed to bind”.
As to FQGRGVFEL [SEQ ID NO: 48], the “binding to a human HLA-A type molecule” value in test [2] is on record as “experimentally confirmed to bind”.
In the case of GQISVQPTF [SEQ ID NO: 5], in test [1], the “Binding Experiment Data (−log Kd value)” value was found to be 7.191. The “binding to a human HLA-A type molecule” value in test [2] was “experimentally confirmed to bind”.
For IFLARSALI [SEQ ID NO: 4] the same measures were 8.012 and “experimentally confirmed to bind”.
Take IYKRRDGKW [SEQ ID NO: 17]: the “Binding Experiment Data (−log Kd value)” value in test [1] is given as 7.326. Further, the “binding to a human HLA-A type molecule” value in test [2] is “experimentally confirmed to bind”.
Regarding IYKRREGKW [SEQ ID NO: 13], the “Binding Experiment Data (−log Kd value)” value in test [1] was determined as 7.25. Further, in test [2], the “binding to a human HLA-A type molecule” value is on record as “experimentally confirmed to bind”.
Consider IYRRRDGKW [SEQ ID NO: 10], for which the “Binding Experiment Data (−log Kd value)” value in test [1] is 7.497. In test [2], the “binding to a human HLA-A type molecule” value was “experimentally confirmed to bind”.
With LIFLARSAL [SEQ ID NO: 52, LIFLARSAL], the “binding to a human HLA-A type molecule” value in test [2] is reported as “experimentally confirmed to bind”.
The same measure, in the same setting: for LILYDKEEI [SEQ ID NO: 51] the value was “experimentally confirmed to bind”; for LQNSQVFSL [SEQ ID NO: 49], “experimentally confirmed to bind”.
As for NLPFERATI [SEQ ID NO: 8], in test [1], the “Binding Experiment Data (−log Kd value)” value worked out at 7.764.
Consider NLPFERATI [SEQ ID NO: 25], for which, in test [2], the “binding to a human HLA-A type molecule” value is “experimentally confirmed to bind”.
Still for that read-out and setting: for RLIQNSITI [SEQ ID NO: 3] the value was “experimentally confirmed to bind”.
For the sequence RLLQNSQVF [SEQ ID NO: 2], the “Binding Experiment Data (−log Kd value)” value in test [1] is listed as 6.915. In addition, the “binding to a human HLA-A type molecule” value in test [2] is recorded as “experimentally confirmed to bind”.
For RMVGGIGRF [SEQ ID NO: 14] the same measures were 7.543 and “experimentally confirmed to bind”.
For RMVSGIGRF [SEQ ID NO: 15] the same measures were 7.436 and “experimentally confirmed to bind”.
Turning to SLPFERATI [SEQ ID NO: 11], the “Binding Experiment Data (−log Kd value)” value in test [1] worked out at 7.719. The “binding to a human HLA-A type molecule” value in test [2] is reported as “experimentally confirmed to bind”.
For VGIDPFRLL [SEQ ID NO: 12] the same measures were 5.12 and “experimentally confirmed to bind”.
In the case of WMACHSAAF [SEQ ID NO: 1], in test [2], the “binding to a human HLA-A type molecule” value is reported as “experimentally confirmed to bind”.
On to YLEEHPSAG [SEQ ID NO: 21], for which, in test [2], the “binding to a human HLA-A type molecule” value was “experimentally confirmed to bind”.
Still for that read-out and setting: for YLEENPSAG [SEQ ID NO: 26] the value was “experimentally confirmed to bind”.
